# Experimental data taken from PubChem BioAssay (NCI).
# Where “and” joins values, the source holds several entries; their conditions need not be identical. Equal values may be shown once.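 Cells were grown in 96-well plates and exposed to each compound for 48 hours at five concentrations; endpoints were interpolated linearly between bracketing concentrations, or set to the highest concentration if not reached. GI50 marks 50% less growth. The concentration for full growth arrest is given as TGI.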
# Columns and labels:
# Test in all cases: inhibition of tumour cell growth, NCI panel, 48 h
# [1] = test system: A549 NSCLC
# [2] = test system: IGROV1 ovarian
# [3] = test system: KM12 colon
# [4] = test system: M14 melanoma
# [5] = test system: MALME-3M melanoma
# [6] = test system: MOLT-4 leukemia
# [7] = test system: NCI-H460 lung
# [8] = test system: OVCAR-4 ovarian
# [9] = test system: RPMI-8226 leukemia
# [10] = test system: SK-MEL-5 melanoma
Structure (SMILES),GI50 [1] [µM],TGI [1] [µM],TGI [2] [µM],GI50 [3] [µM],GI50 [4],TGI [4] [µM],TGI [5] [µM],TGI [6],GI50 [7] [µM],TGI [7],TGI [8] [µM],GI50 [9] [µM],TGI [9] [µM],GI50 [10] [µM],TGI [3] [µM],TGI [10],GI50 [2] [µM],GI50 [5] [µM],GI50 [6] [µM],GI50 [8] [µM]
COc1ccc2[nH]c(-c3cccc(N(C)C)c3)cc(=O)c2c1,4.46,> 100,> 100,0.393,0.325 µM and 0.552 µM,> 100,> 100,2.71 µM and 1.56 µM,0.564,> 100 µM,> 100,0.443,0.844,0.305,,,,,,
O=C(O)c1ccc(S(=O)(=O)N=Nc2c(O)[nH]c3ccccc23)cc1,,> 100,> 100,,,> 100,> 100,> 100 µM,,> 100 µM,> 100,,> 100,,> 100,> 100 µM,,,,
Fc1ccc(F)c(C2SCc3nc4ccccc4n32)c1 (stereo not drawn),,> 100,> 100,,,> 100,> 100,91.6 µM,,> 100 µM,> 100,,> 100,,> 100,46.6 µM,,,,
Cc1ccc2[nH]c(C(=O)NN3C(=O)CSC34CCCC(C)C4)c(-c3ccccc3)c2c1 (stereo not drawn),15.2,30.5,12,16.2,18.8 µM,35.5,34.7,31.9 µM,18.1,38.4 µM,40.2,13.7,31.5,17.4,34.3,34.9 µM,0.0485,18.3,8.77,18.4
O=C(NCCN1CCOCC1)Nc1ccc(-c2cc3c(Nc4ccc(Oc5cccc(C(F)(F)F)c5)c(Cl)c4)ncnc3s2)cc1,1.04,2.42,6.85,1.02,1.16 µM,3.24,1.57,3.75 µM,1.12,2.54 µM,11.5,1.4,3.54,0.916,2.12,1.71 µM,1.64,0.832,1.22,3.26
Cc1ccccc1-n1c(/C=C\c2ccccn2)nc2ccccc2c1=O,26,> 100,63.9,11.1,14.2 µM,33.9,42.1,27.7 µM,9.29,42.1 µM,> 100,2.51,15,9.61,27.9,22.6 µM,13.2,18.8,6.16,18.1
COc1cccc2c1cc([N+](=O)[O-])c1c(C(=O)O)cc3c(c12)OCO3,25.8,> 100,> 100,24.5,,> 100,> 100,> 100 µM,18.2,63.7 µM and > 100 µM,> 100,37.1,> 100,22.3,> 87.2,72.2 µM and > 100 µM,34.3,31.1,40.9,83.4
